IC50 data for 23 compounds are collected here from patent US20160159816A1, “SUBSTITUTED THIENOPYRIMIDINES AND PHARMACEUTICAL USE THEREOF” (BAYER PHARMA AKTIENGESELLSCHAFT, priority 2013, published 2016).

pIC50: −log10 of the molar value.

For the assay, the target named is T1, human full-length MKNK1 (Homo sapiens, UniProt Q9BUB5, T385D).
T1 construct: GST (N); purchased Carna Biosciences 02-145; host or cells: insect cells, baculovirus expression system
T1 sequence (Q9BUB5 1-424 isoform Q9BUB5-2 T344D): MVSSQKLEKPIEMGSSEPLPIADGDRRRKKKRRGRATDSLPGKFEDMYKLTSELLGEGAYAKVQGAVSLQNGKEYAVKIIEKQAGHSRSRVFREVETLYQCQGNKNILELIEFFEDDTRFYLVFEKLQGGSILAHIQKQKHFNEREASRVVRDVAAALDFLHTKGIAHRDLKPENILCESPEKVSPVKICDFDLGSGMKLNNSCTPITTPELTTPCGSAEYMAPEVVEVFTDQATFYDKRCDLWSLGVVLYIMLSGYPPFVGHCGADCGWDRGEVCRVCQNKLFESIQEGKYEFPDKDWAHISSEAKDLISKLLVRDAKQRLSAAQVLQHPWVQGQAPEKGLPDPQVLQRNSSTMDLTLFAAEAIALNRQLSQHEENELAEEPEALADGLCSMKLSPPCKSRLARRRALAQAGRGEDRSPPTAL
In words: MKNK1 kinase high ATP assay (TR-FRET). The conditions noted are these: high ATP (2 mM), after preincubation with MKNK1; compounds of the present invention (Table 1a). The class given is biochemical. The method, then:
MKNK1-inhibitory activity at high ATP of compounds of the present invention after their preincubation with MKNK1 was quantified employing the TR-FRET-based MKNK1 high ATP assay as described in the following paragraphs.
A recombinant fusion protein of Glutathione-S-Transferase (GST, N-terminally) and human full-length MKNK1 (amino acids 1-424 and T344D of accession number BAA 19885.1), expressed in insect cells using baculovirus expression system and purified via glutathione sepharose affinity chromatography, was purchased from Carna Biosciences (product no 02-145) and used as enzyme. As substrate for the kinase reaction the biotinylated peptide biotin-Ahx-IKKRKLTRRKSLKG (C-terminus in amide form) was used, which can be purchased e.g. from the company Biosyntan (Berlin-Buch, Germany).
For the assay 50 nL of a 100 fold concentrated solution of the test compound in DMSO was pipetted into a black low volume 384 well microtiter plate (Greiner Bio-One, Frickenhausen, Germany), 2 μL of a solution of MKNK1 in aqueous assay buffer [50 mM HEPES pH 7.5, 5 mM MgCl2, 1.0 mM dithiothreitol, 0.005% (v/v) Nonidet-P40 (Sigma)] was added and the mixture was incubated for 15 min at 22° C. to allow pre-binding of the test compounds to the enzyme before the start of the kinase reaction. Then the kinase reaction was started by the addition of 3 μL of a solution of adenosine-tri-phosphate (ATP, 3.3 mM=>final conc. in the 5 μL assay volume is 2 mM) and substrate (0.1 μM=>final conc. in the 5 μL assay volume is 0.06 μM) in assay buffer and the resulting mixture was incubated for a reaction time of 30 min at 22° C. The concentration of MKNK1 was adjusted depending of the activity of the enzyme lot and was chosen appropriate to have the assay in the linear range, typical concentrations were in the range of 0.003 μg/mL. The reaction was stopped by the addition of 5 μL of a solution of TR-FRET detection reagents (5 nM streptavidine-XL665 [Cisbio Bioassays, Codolet, France] and 1 nM anti-ribosomal protein […] (pSer236)-antibody from Invitrogen [#44921G] and 1 nM LANCE EU-W1024 labeled ProteinG [Perkin-Elmer, product no. AD0071]) in an aqueous EDTA-solution (100 mM EDTA, 0.1% (w/v) bovine serum albumin in 50 mM HEPES pH 7.5).
The resulting mixture was incubated for 1 h at 22° C. to allow the formation of complex between the phosphorylated biotinylated peptide and the detection reagents. Subsequently the amount of phosphorylated substrate was evaluated by measurement of the resonance energy transfer from the Eu-chelate to the streptavidine-XL. Therefore, the fluorescence emissions at 620 nm and 665 nm after excitation at 350 nm were measured in a TR-FRET reader, e.g. a Rubystar (BMG Labtechnologies, Offenburg, Germany) or a Viewlux (Perkin-Elmer). The ratio of the emissions at 665 nm and at […] was taken as the measure for the amount of phosphorylated substrate. The data were normalised (enzyme reaction without inhibitor=0% inhibition, all other assay components but no enzyme=100% inhibition). […] Table 1a lists MKNK1 high ATP IC50 values of some compounds of the present invention.
On the technique in general: Time-resolved FRET reads energy transfer from a long-lived donor to a nearby acceptor.
For orientation: pIC50 means the IC50 on a negative log10 scale, so that one unit is a factor of ten. A lower pIC50 goes with a large IC50. The compound `COCC1(OC)CCc2c(sc3ncnc(Nc4cc5cn[nH]c5cc4C)c23)C1` (racemic) [Example 29, (RS)-7-methoxy-7-(methoxymethyl)-N-(6-methyl-1H-indazol-5-yl)-5,6,7,8-tetrahydro[1]benzothieno[2,3-d]pyrimidin-4-amine] gave a pIC50 of 6.01.
As for `COCC1(OC)CCc2c(sc3ncnc(Nc4cc5cn[nH]c5cc4F)c23)C1` (racemic) [Example 30, (RS)—N-(6-Fluoro-1H-indazol-5-yl)-7-methoxy-7-(methoxymethyl)-5,6,7,8-tetrahydro[1]benzothieno[2,3-d]pyrimidin-4-amine], the pIC50 is 7.05.
The value for `COCC1(OC)CCc2c(sc3ncnc(Nc4cc5cn[nH]c5cc4Cl)c23)C1` (racemic) [Example 31, (RS)—N-(6-Chloro-1H-indazol-5-yl)-7-methoxy-7-(methoxymethyl)-5,6,7,8-tetrahydro[1]benzothieno[2,3-d]pyrimidin-4-amine] was 6.83; that for `COCC1(OC)CCc2c(sc3ncnc(Nc4cc5cn[nH]c5cc4OC)c23)C1` (racemic) [Example 32, (RS)-7-Methoxy-N-(6-methoxy-1H-indazol-5-yl)-7-(methoxymethyl)-5,6,7,8-tetrahydro[1]benzothieno[2,3-d]pyrimidin-4-amine] was 8.04; that for `CN(C)C1CCc2c(sc3ncnc(Nc4ccc5[nH]ncc5c4)c23)C1` (racemic) [Example 35, (RS)—N^4-(1H-Indazol-5-yl)-N^7,N^7-dimethyl-5,6,7,8-tetrahydro[1]benzothieno[2,3-d]pyrimidine-4,7-diamine] was 6.66.
With `COc1cc2[nH]ncc2cc1Nc1ncnc2sc3c(c12)CCC(N(C)C)C3` (racemic) [Example 36, (RS)—N^4-(6-Methoxy-1H-indazol-5-yl)-N^7,N^7-dimethyl-5,6,7,8-tetrahydro[1]benzothieno[2,3-d]pyrimidine-4,7-diamine], the negative-log IC50 (pIC50) was 7.85.
`COCC1(OC)CCc2c(sc3ncnc(Nc4ccc5[nH]ncc5c4)c23)C1` (racemic) [Example 37, (7RS)—N-(1H-Indazol-5-yl)-7-methoxy-7-(methoxymethyl)-5,6,7,8-tetrahydro[1]benzothieno[2,3-d]pyrimidin-4-amine] showed a pIC50 of 7.32. Against the preceding compound, the pIC50 is 0.53 log units lower.
The compound `OCc1cnnn1C[C@@H]1CCc2c(sc3ncnc(Nc4ccc5[nH]ncc5c4)c23)C1` (single isomer, unassigned) [Example 33, (1-{[(7R or 7S)-4-(1H-Indazol-5-ylamino)-5,6,7,8-tetrahydro[1]benzothieno[2,3-d]pyrimidin-7-yl]methyl}-1H-1,2,3-triazol-5-yl)methanol] showed a pIC50 of 7.77.
Then `OCc1cn(C[C@@H]2CCc3c(sc4ncnc(Nc5ccc6[nH]ncc6c5)c34)C2)nn1` (single isomer, unassigned) [Example 34, (1-{[(7R or 7S)-4-(1H-Indazol-5-ylamino)-5,6,7,8-tetrahydro[1]benzothieno[2,3-d]pyrimidin-7-yl]methyl}-1H-1,2,3-triazol-4-yl)methanol], with 7.69.
Then `COCC1(OC)CCc2c(sc3ncnc(Nc4ccc5[nH]ncc5c4)c23)C1` (single isomer, unassigned) [Example 38, (7R) or (7S) N-(1H-Indazol-5-yl)-7-methoxy-7-(methoxymethyl)-5,6,7,8-tetrahydro[1]benzothieno[2,3-d]pyrimidin-4-amine], with 6.97; and `COCC1(OC)CCc2c(sc3ncnc(Nc4ccc5[nH]ncc5c4)c23)C1` (single isomer, unassigned) [Example 39, (7S) or (7R) N-(1H-Indazol-5-yl)-7-methoxy-7-(methoxymethyl)-5,6,7,8-tetrahydro[1]benzothieno[2,3-d]pyrimidin-4-amine], with 7.16.
Then `COCC1(OC)CCc2c(sc3ncnc(Nc4cc5cn[nH]c5cc4C)c23)C1` (single isomer, unassigned) [Example 40, (7R) or (7S) 7-Methoxy-7-(methoxymethyl)-N-(6-methyl-1H-indazol-5-yl)-5,6,7,8-tetrahydro[1]benzothieno[2,3-d]pyrimidin-4-amine], with 6.31; and `COCC1(OC)CCc2c(sc3ncnc(Nc4cc5cn[nH]c5cc4C)c23)C1` (single isomer, unassigned) [Example 41, (7S) or (7R) 7-Methoxy-7-(methoxymethyl)-N-(6-methyl-1H-indazol-5-yl)-5,6,7,8-tetrahydro[1]benzothieno[2,3-d]pyrimidin-4-amine], with 6.43; and `COCC1(OC)CCc2c(sc3ncnc(Nc4cc5cn[nH]c5cc4OC)c23)C1` (single isomer, unassigned) [Example 42, (7R) or (7S) 7-Methoxy-N-(6-methoxy-1H-indazol-5-yl)-7-(methoxymethyl)-5,6,7,8-tetrahydro[1]benzothieno[2,3-d]pyrimidin-4-amine], with 8.00.
In turn, `COCC1(OC)CCc2c(sc3ncnc(Nc4cc5cn[nH]c5cc4OC)c23)C1` (single isomer, unassigned) [Example 43, (7S) or (7R) 7-Methoxy-N-(6-methoxy-1H-indazol-5-yl)-7-(methoxymethyl)-5,6,7,8-tetrahydro[1]benzothieno[2,3-d]pyrimidin-4-amine] gave a pIC50 of 7.90.
Then `COCC1(OC)CCc2c(sc3ncnc(Nc4cc5cn[nH]c5cc4F)c23)C1` (single isomer, unassigned) [Example 44, (7R) or (7S) N-(6-Fluoro-1H-indazol-5-yl)-7-methoxy-7-(methoxymethyl)-5,6,7,8-tetrahydro[1]benzothieno[2,3-d]pyrimidin-4-amine], with 7.13; and `COCC1(OC)CCc2c(sc3ncnc(Nc4cc5cn[nH]c5cc4F)c23)C1` (single isomer, unassigned) [Example 45, (7S) or (7R) N-(6-Fluoro-1H-indazol-5-yl)-7-methoxy-7-(methoxymethyl)-5,6,7,8-tetrahydro[1]benzothieno[2,3-d]pyrimidin-4-amine], with 7.05.
On to `COCC1(OC)CCc2c(sc3ncnc(Nc4cc5cn[nH]c5cc4Cl)c23)C1` (single isomer, unassigned) [Example 46, (7R) or (7S) N-(6-Chloro-1H-indazol-5-yl)-7-methoxy-7-(methoxymethyl)-5,6,7,8-tetrahydro[1]benzothieno[2,3-d]pyrimidin-4-amine], for which the negative logarithm of the IC50 (pIC50) is 7.05.
In turn, `COCC1(OC)CCc2c(sc3ncnc(Nc4cc5cn[nH]c5cc4Cl)c23)C1` (single isomer, unassigned) [Example 47, (7S) or (7R) N-(6-Chloro-1H-indazol-5-yl)-7-methoxy-7-(methoxymethyl)-5,6,7,8-tetrahydro[1]benzothieno[2,3-d]pyrimidin-4-amine] showed a pIC50 of 6.78.
Then `COc1cc2[nH]ncc2cc1Nc1ncnc2sc3c(c12)CCCC3` [Example 2, N-(6-methoxy-1H-indazol-5-yl)-5,6,7,8-tetrahydro[1]benzothieno[2,3-d]pyrimidin-4-amine], with 7.87.
Regarding `c1nc(Nc2ccc3[nH]ncc3c2)c2c3c(sc2n1)CCCC3` [Example 3, N-(1H-Indazol-5-yl)-5,6,7,8-tetrahydro[1]benzothieno[2,3-d]pyrimidin-4-amine], the pIC50 was 7.73.
Then `COc1cc2[nH]ncc2cc1Nc1ncnc2sc3c(c12)CCC1(C3)OCCO1` [Example 24, N-(6-Methoxy-1H-indazol-5-yl)-5,8-dihydro-6H-spiro[1-benzothieno[2,3-d]pyrimidine-7,2′-[1,3]dioxolan]-4-amine], with 8.32.
On to `COc1cc2[nH]ncc2cc1Nc1ncnc2sc3c(c12)CC[C@](C)(C(=O)N(C)C)C3` [Example 48, (7S) 4-[(6-Methoxy-1H-indazol-5-yl)amino]-N,N,7-trimethyl-5,6,7,8-tetrahydro[1]benzothieno[2,3-d]pyrimidine-7-carboxamide], for which the pIC50 is 8.62. This pIC50 is 0.30 log units higher than that of the compound before.
